US5079260A, “Method for treating inflammation and compounds and compositions suitable for use therein” (Nova Pharmaceutical Corporation, priority 1990, dated 1992)

Each compound was assayed on Ear Edema Caused By Tetradecanoylphorbol Acetate (assay: Inhibition of Ear Edema Caused by Tetradecanoylphorbol Acetate (II), Table 7). Details: i.p., 10 mg/kg; 3 h.
Assay type: in vivo, CF-1 Mice

Compound	% Inhibition Intraperitoneal [%]
Cc1cccc2c1C(CCC(=O)N[C@H](C(=O)O)C(C)(C)C)c1ccccc1-2 (stereo partly drawn) [NPC 15885, N-{9H-[3-(1-Methylfluoren-9-yl)propionyl]}-L-tert-leucine, quarter hydrate]	70
CC(C)C[C@H](NC(=O)OCC1c2ccccc2-c2ccccc21)C(=O)OC(C)(C)C [NPC 15527, N-[(9H-Fluoren-9-ylmethoxy)carbonyl]-L-leucine t-butyl ester]	54
Cc1ccc2c(c1)C(COC(=O)N[C@@H](CC(C)C)C(=O)O)c1ccccc1-2 (stereo partly drawn) [NPC 15477, N-{[9H-(2-Methylfluoren-9-yl)methoxy]carbonyl}-L-leucine]	35

Same assay, conditions: i.p., 30 mg/kg; 3 h

Compound	% Inhibition Intraperitoneal [%]
Cc1cccc2c1C(CCC(=O)N[C@H](C(=O)O)C(C)(C)C)c1ccccc1-2 (stereo partly drawn) [NPC 15885, N-{9H-[3-(1-Methylfluoren-9-yl)propionyl]}-L-tert-leucine, quarter hydrate]	77
CC(C)C[C@H](NC(=O)OCC1c2ccccc2-c2ccccc21)C(=O)OC(C)(C)C [NPC 15527, N-[(9H-Fluoren-9-ylmethoxy)carbonyl]-L-leucine t-butyl ester]	54
Cc1ccc2c(c1)C(COC(=O)N[C@@H](CC(C)C)C(=O)O)c1ccccc1-2 (stereo partly drawn) [NPC 15477, N-{[9H-(2-Methylfluoren-9-yl)methoxy]carbonyl}-L-leucine]	37

Same assay, conditions: i.p., 100 mg/kg; 3 h

Compound	% Inhibition Intraperitoneal [%]
Cc1cccc2c1C(CCC(=O)N[C@H](C(=O)O)C(C)(C)C)c1ccccc1-2 (stereo partly drawn) [NPC 15885, N-{9H-[3-(1-Methylfluoren-9-yl)propionyl]}-L-tert-leucine, quarter hydrate]	80
CC(C)C[C@H](NC(=O)OCC1c2ccccc2-c2ccccc21)C(=O)OC(C)(C)C [NPC 15527, N-[(9H-Fluoren-9-ylmethoxy)carbonyl]-L-leucine t-butyl ester]	74
Cc1ccc2c(c1)C(COC(=O)N[C@@H](CC(C)C)C(=O)O)c1ccccc1-2 (stereo partly drawn) [NPC 15477, N-{[9H-(2-Methylfluoren-9-yl)methoxy]carbonyl}-L-leucine]	72

What follows are compounds tested on Ear Edema Caused by Arachidonic Acid (assay: Inhibition of Ear Edema Caused by Arachidonic Acid (II), Table 8). Details: i.p., 10 mg/kg; sixty minutes.
Assay type: in vivo, CF-1 mice
In short: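 CF-1 mice (25-30 g, six/group) dosed intraperitoneally with compound in DMSO or 0.5% methylcellulose 30 min before topical arachidonic acid (100 mg/mL in ethanol, both ear surfaces).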

Compound	% Inhibition Intraperitoneal [%]
Cc1cccc2c1C(CCC(=O)N[C@H](C(=O)O)C(C)(C)C)c1ccccc1-2 (stereo partly drawn) [NPC 15885, N-{9H-[3-(1-Methylfluoren-9-yl)propionyl]}-L-tert-leucine, quarter hydrate]	52
CC(C)C[C@H](NC(=O)OCC1c2ccccc2-c2ccccc21)C(=O)OC(C)(C)C [NPC 15527, N-[(9H-Fluoren-9-ylmethoxy)carbonyl]-L-leucine t-butyl ester]	21
Cc1ccc2c(c1)C(COC(=O)N[C@@H](CC(C)C)C(=O)O)c1ccccc1-2 (stereo partly drawn) [NPC 15477, N-{[9H-(2-Methylfluoren-9-yl)methoxy]carbonyl}-L-leucine]	10

Same assay, conditions: i.p., 30 mg/kg; sixty minutes

Compound	% Inhibition Intraperitoneal [%]
Cc1cccc2c1C(CCC(=O)N[C@H](C(=O)O)C(C)(C)C)c1ccccc1-2 (stereo partly drawn) [NPC 15885, N-{9H-[3-(1-Methylfluoren-9-yl)propionyl]}-L-tert-leucine, quarter hydrate]	71
CC(C)C[C@H](NC(=O)OCC1c2ccccc2-c2ccccc21)C(=O)OC(C)(C)C [NPC 15527, N-[(9H-Fluoren-9-ylmethoxy)carbonyl]-L-leucine t-butyl ester]	47
Cc1ccc2c(c1)C(COC(=O)N[C@@H](CC(C)C)C(=O)O)c1ccccc1-2 (stereo partly drawn) [NPC 15477, N-{[9H-(2-Methylfluoren-9-yl)methoxy]carbonyl}-L-leucine]	58

Same assay, conditions: i.p., 100 mg/kg; sixty minutes

Compound	% Inhibition Intraperitoneal [%]
Cc1cccc2c1C(CCC(=O)N[C@H](C(=O)O)C(C)(C)C)c1ccccc1-2 (stereo partly drawn) [NPC 15885, N-{9H-[3-(1-Methylfluoren-9-yl)propionyl]}-L-tert-leucine, quarter hydrate]	79
Cc1ccc2c(c1)C(COC(=O)N[C@@H](CC(C)C)C(=O)O)c1ccccc1-2 (stereo partly drawn) [NPC 15477, N-{[9H-(2-Methylfluoren-9-yl)methoxy]carbonyl}-L-leucine]	82

Same assay, conditions: i.p., 110 mg/kg (so in the source); sixty minutes

Compound	% Inhibition Intraperitoneal [%]
CC(C)C[C@H](NC(=O)OCC1c2ccccc2-c2ccccc21)C(=O)OC(C)(C)C [NPC 15527, N-[(9H-Fluoren-9-ylmethoxy)carbonyl]-L-leucine t-butyl ester]	68

The compounds below were run on Ear Edema Caused by Tetradecanoylphorbolacetate (assay: Inhibition of Ear Edema Caused by Tetradecanoylphorbolacetate (I), Table 1). Details: i.p., 100 mg/kg, 30 min before irritant; ear thickness at 3 h.
Assay type: in vivo, CF-1 Mice
Excerpt: Such inflammatory agents typically include tetradecanoylphorbolacetate, arachidonic acid, xylene, capsaicin, oxazolone, carrageenan and the like. The reverse passive Arthus test offers another measure of the compound's utility in preventing an inflammatory response (Chang et al, Eur. J. Pharm. 69:155-164 (1981)). Test compounds are typically administered intraperitoneally or topically. For intraperitoneal administration, the test compound can be given in dimethyl sulfoxide or in 0.5% methylcellulose 30 minutes prior to administration of the irritant. For topical administration, the test compound can be dissolved in, for example, acetone, ethanol or dimethyl sulfoxide and applied about 15 minutes prior to application of the irritant. Results can be expressed as the percent decrease in swelling in the compound-treated animals as compared to control animals that receive only the irritant.
Inhibition of Ear Edema Caused by Tetradecanoylphorbolacetate (I)
CF-1 Mice, 25-30 g body weight, six animals per group, were used. Test compounds (compounds of Formula I where X is oxygen, R3, R4, A and B are hydrogen and Q is as indicated in Table 1) were administered intraperitoneally (100 mg/kg) or topically as follows. For intraperitoneal administration, the test compound was dissolved in dimethyl sulfoxide or 0.5% methylcellulose and 100 μl was injected 30 minutes prior to irritant (100 mg/kg, i.p.). For topical administration, the test compound was dissolved in either acetone, ethanol or dimethyl sulfoxide and 5 μl (100 μg) applied to the upper surface (1 cm^2) of the ear and an additional 5 μl (100 μg) applied to the lower surface (1 cm^2) of the ear fifteen minutes prior to application of the irritant. A solution of the irritant, tetradecanoylphorbolacetate, 200 μg/ml, was added to the surface of the ear, 5 μl added to the upper surface and 5 μl to the lower surface. After three hours, the thickness of the ear was measured to 0.01 mm by a micrometer with loose drag positioned at the lateral-most edge of the mid-point of the pinna. Data were calculated as the inhibition by the test compound of increased ear thickness compared to control animals receiving only the irritant.

Compound	% Inhibition Intraperitoneal [%]
NCCCC[C@H](N)C(=O)O [L-Lysine]	14

The compounds below were run on Reverse Passive Artus Reaction (assay: Reverse Passive Artus Reaction (II), Table 11). Details: inhibition of blueing; i.p., 100 mg/kg.
Assay type: in vivo, Male CD rats
Procedure: Reverse Passive Artus Reaction (II) Male CD rats weighing between 200 and 250 g were used. […] The animals were anesthetized inhalationally with isoflurane and then injected through the penile vein with 1 mL of a solution of 2.5 mg of Evan's blue dye and 5.0 mg of human serum albumin in 1 mL of saline. This treatment was followed immediately by intracutaneous injections of 0.03 mL of anti-human albumin diluted to contain 3.65 mg of antibody at 3 sites along the midline back. Anesthesia was terminated and after three hours, the animals were sacrificed. The skin was removed and the blue stained areas cut out. The skin patches were soaked overnight in stoppered tubes containing 1 mL of 1 N potassium hydroxide at 37° C. Then 9 mL of a mixture of five parts of a 0.6 N phosphoric acid and thirteen parts of acetone were added to the tubes. The tube contents were agitated and centrifuged, and the absorbance measured at 620 nm. The data were calculated as inhibition of blueing by test compound compared to control animals receiving only antigen and antibody.

Compound	% Inhibition Intraperitoneal [%]
Cc1cccc2c1C(CCC(=O)N[C@H](C(=O)O)C(C)(C)C)c1ccccc1-2 (stereo partly drawn) [NPC 15885, N-{9H-[3-(1-Methylfluoren-9-yl)propionyl]}-L-tert-leucine, quarter hydrate]	49
CC(C)C[C@H](NC(=O)OCC1c2ccccc2-c2ccccc21)C(=O)OC(C)(C)C [NPC 15527, N-[(9H-Fluoren-9-ylmethoxy)carbonyl]-L-leucine t-butyl ester]	4
Cc1ccc2c(c1)C(COC(=O)N[C@@H](CC(C)C)C(=O)O)c1ccccc1-2 (stereo partly drawn) [NPC 15477, N-{[9H-(2-Methylfluoren-9-yl)methoxy]carbonyl}-L-leucine]	53

The compounds below were run on Ear Edema Caused by Oxazolone (assay: Inhibition of Ear Edema Caused by Oxazolone (II), Table 10). Details: i.p., 10 mg/kg; 24 h.
Assay type: in vivo, CF-1 mice

Compound	% Inhibition Intraperitoneal [%]
Cc1cccc2c1C(CCC(=O)N[C@H](C(=O)O)C(C)(C)C)c1ccccc1-2 (stereo partly drawn) [NPC 15885, N-{9H-[3-(1-Methylfluoren-9-yl)propionyl]}-L-tert-leucine, quarter hydrate]	1
CC(C)C[C@H](NC(=O)OCC1c2ccccc2-c2ccccc21)C(=O)OC(C)(C)C [NPC 15527, N-[(9H-Fluoren-9-ylmethoxy)carbonyl]-L-leucine t-butyl ester]	31
Cc1ccc2c(c1)C(COC(=O)N[C@@H](CC(C)C)C(=O)O)c1ccccc1-2 (stereo partly drawn) [NPC 15477, N-{[9H-(2-Methylfluoren-9-yl)methoxy]carbonyl}-L-leucine]	3

Same assay, conditions: i.p., 30 mg/kg; 24 h

Compound	% Inhibition Intraperitoneal [%]
Cc1cccc2c1C(CCC(=O)N[C@H](C(=O)O)C(C)(C)C)c1ccccc1-2 (stereo partly drawn) [NPC 15885, N-{9H-[3-(1-Methylfluoren-9-yl)propionyl]}-L-tert-leucine, quarter hydrate]	8
CC(C)C[C@H](NC(=O)OCC1c2ccccc2-c2ccccc21)C(=O)OC(C)(C)C [NPC 15527, N-[(9H-Fluoren-9-ylmethoxy)carbonyl]-L-leucine t-butyl ester]	33
Cc1ccc2c(c1)C(COC(=O)N[C@@H](CC(C)C)C(=O)O)c1ccccc1-2 (stereo partly drawn) [NPC 15477, N-{[9H-(2-Methylfluoren-9-yl)methoxy]carbonyl}-L-leucine]	14

Same assay, conditions: i.p., 100 mg/kg; 24 h

Compound	% Inhibition Intraperitoneal [%]
Cc1cccc2c1C(CCC(=O)N[C@H](C(=O)O)C(C)(C)C)c1ccccc1-2 (stereo partly drawn) [NPC 15885, N-{9H-[3-(1-Methylfluoren-9-yl)propionyl]}-L-tert-leucine, quarter hydrate]	36
Cc1ccc2c(c1)C(COC(=O)N[C@@H](CC(C)C)C(=O)O)c1ccccc1-2 (stereo partly drawn) [NPC 15477, N-{[9H-(2-Methylfluoren-9-yl)methoxy]carbonyl}-L-leucine]	43

Same assay, conditions: i.p., 110 mg/kg (so in the source); 24 h

Compound	% Inhibition Intraperitoneal [%]
CC(C)C[C@H](NC(=O)OCC1c2ccccc2-c2ccccc21)C(=O)OC(C)(C)C [NPC 15527, N-[(9H-Fluoren-9-ylmethoxy)carbonyl]-L-leucine t-butyl ester]	54

The compounds below were run on Ear Edema Caused by Xylene (assay: Inhibition of Ear Edema Caused by Xylene (II), Table 9). Details: i.p., 10 mg/kg; 2 h.
Assay type: in vivo, CF-1 mice
In short: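 CF-1 mice (25-30 g, six per group) received compound i.p. in DMSO or 0.5% methylcellulose 30 min before xylene was applied to both ear surfaces. Ear thickness was measured by micrometer 2 h later. Values are percent inhibition of the increase in ear thickness versus irritant-only controls.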

Compound	% Inhibition [%]
Cc1cccc2c1C(CCC(=O)N[C@H](C(=O)O)C(C)(C)C)c1ccccc1-2 (stereo partly drawn) [NPC 15885, N-{9H-[3-(1-Methylfluoren-9-yl)propionyl]}-L-tert-leucine, quarter hydrate]	39
CC(C)C[C@H](NC(=O)OCC1c2ccccc2-c2ccccc21)C(=O)OC(C)(C)C [NPC 15527, N-[(9H-Fluoren-9-ylmethoxy)carbonyl]-L-leucine t-butyl ester]	42
Cc1ccc2c(c1)C(COC(=O)N[C@@H](CC(C)C)C(=O)O)c1ccccc1-2 (stereo partly drawn) [NPC 15477, N-{[9H-(2-Methylfluoren-9-yl)methoxy]carbonyl}-L-leucine]	41

Same assay, conditions: i.p., 30 mg/kg; 2 h

Compound	% Inhibition [%]
Cc1cccc2c1C(CCC(=O)N[C@H](C(=O)O)C(C)(C)C)c1ccccc1-2 (stereo partly drawn) [NPC 15885, N-{9H-[3-(1-Methylfluoren-9-yl)propionyl]}-L-tert-leucine, quarter hydrate]	49
CC(C)C[C@H](NC(=O)OCC1c2ccccc2-c2ccccc21)C(=O)OC(C)(C)C [NPC 15527, N-[(9H-Fluoren-9-ylmethoxy)carbonyl]-L-leucine t-butyl ester]	34
Cc1ccc2c(c1)C(COC(=O)N[C@@H](CC(C)C)C(=O)O)c1ccccc1-2 (stereo partly drawn) [NPC 15477, N-{[9H-(2-Methylfluoren-9-yl)methoxy]carbonyl}-L-leucine]	53

Same assay, conditions: i.p., 100 mg/kg; 2 h

Compound	% Inhibition [%]
Cc1cccc2c1C(CCC(=O)N[C@H](C(=O)O)C(C)(C)C)c1ccccc1-2 (stereo partly drawn) [NPC 15885, N-{9H-[3-(1-Methylfluoren-9-yl)propionyl]}-L-tert-leucine, quarter hydrate]	48
CC(C)C[C@H](NC(=O)OCC1c2ccccc2-c2ccccc21)C(=O)OC(C)(C)C [NPC 15527, N-[(9H-Fluoren-9-ylmethoxy)carbonyl]-L-leucine t-butyl ester]	50
Cc1ccc2c(c1)C(COC(=O)N[C@@H](CC(C)C)C(=O)O)c1ccccc1-2 (stereo partly drawn) [NPC 15477, N-{[9H-(2-Methylfluoren-9-yl)methoxy]carbonyl}-L-leucine]	69
